Legend:
[1] = test system: FoxP3+CD4+CD25+ Treg cells; assay: FACS quantitation of FoxP3+CD4+CD25+ Treg cells in spleen and lymph node of treated mice; assay type: in vivo, mouse; conditions: daily injection at 125 μM for 7 days
Procedure: FACS quantitation of Mac1^+Gr1^+ Myeloid-Derived Suppressor Cells (Mac1^+Gr1^+ MySC) (A,B) and FoxP3^+CD4^+CD25^+ Treg cells (C,D) in spleen and lymph node of C57BL6 mice treated with NSC13480, vehicle or non-manipulated mice (Normal). ***p<0.001; *p<0.05.
In addition, both donor and host Treg cells can also limit or abrogate GvHD. […] (Paraiso, K. H., et al. 2007. J Immunol 178:2893). […] Adult mice were treated for 7 days with a daily injection of NSC13480 at 125 μM. The frequency of MySC and Treg cells was tested in the spleens of mice treated with NSC13480, the vehicle used for delivery of NSC 13480 and normal, untreated mice.
Antibody staining and flow cytometry (Examples 1-6): Anti-CD16/32 was co-incubated with the samples to block Fc receptor binding. Antibodies used for staining included: NK1.1 (PK136); CD3e (145-2C11); Ly49G2 (4D11); Gr-1 (RB6-8C5); Mac-1(M1/70); CD11c (HL3); CD4 (GK1.5); CD25 (PC61) and were obtained from BD Pharmingen (San Jose, Calif.). FoxP3 (FJK-16s) was purchased from eBioScience (San Diego, Calif.). All samples were acquired on a FACSCalibur and analyzed using FlowJo8.7.1. For viable staining, dead cells were excluded from the analysis following cytometer acquisition of data by exclusion of the 7AAD dye. […]

KG-1 AML cells = assay: MTT cell viability assay, KG1; assay type: cell-based, human; conditions: KG-1, expresses SHIP1, 36 hours
Procedure: (A) SHIP1 expression in KG1 and MG63 cells was determined by Western blotting (top). Membranes were reprobed with antibodies against b-actin to confirm equal loading (lower panel). One representative blot of 2 individual experiments is shown. (B) KG1 and MG63 cells were plated in duplicate in 96 well plates, and treated for 36 hours with increasing concentrations of the 3α-aminocholestane. Cell viability was assessed by MTT assay. Results represent the mean of three individual experiments. (C) KG1 cells were treated with increasing concentrations of 3α-aminocholestane for 36 hours and hallmarks of apoptosis were identified in cell lysates by Western Blot analysis. […] (D) KG1 cells were treated with increasing concentrations of 3α-aminocholestane, and the percentage of AnnexinV and PI positive cells was determined by FACS analysis. […]
Cell viability assay: Cells were treated in duplicate for 36 hours with increasing concentrations of 3α-aminocholestane or vehicle. […] Formed crystals were dissolved in dimethyl sulfoxide and optical density (OD) was measured at 570 nm. The OD of compound treated cells was divided by the OD of their vehicle control, and the viability was expressed as a percentage of untreated cells. Results are expressed as mean±SEM of three individual experiments.

Compound	number of Treg cells ([1]; lymph node)	number of Treg cells ([1]; spleen)	growth and survival of cells (MTT viability) (KG-1 AML cells)
OC(c1cc(-c2ccccc2)nc2c1ccc1ccccc12)C1CCCCN1 (stereo not drawn) [NSC13480, (2-phenylbenzo[h]quinolin-4-yl)-piperidin-2-ylmethanol]	increased significantly	increased significantly	
CC(C)CCC[C@@H](C)[C@H]1CC[C@H]2[C@@H]3CC[C@H]4C[C@H](N)CC[C@]4(C)[C@H]3CC[C@]12C [NSC23922, (3R,5S,8R,9S,10S,13R,14S,17R)-10,13-dimethyl-17-[(2R)-6-methylheptan-2-yl]-2,3,4,5,6,7,8,9,11,12,14,15,16,17-tetradecahydro-1H-cyclopenta[a]phenanthren-3-amine]			decreases the growth and survival

Reference: patent publication US9006221B2, “Method of modulating ship activity” (H. Lee Moffitt Cancer Center and Reserach Institute, Inc., priority 2008, dated 2015)
